Laboratory results: paper PMC12888861, “Antibacterial activity of enmetazobactam against Acinetobacter spp.: a molecular dissection of mechanism of action and resistance determinants” (Antimicrobial Agents and Chemotherapy, 2025)

Tests used:
OXA-23 [1] = biological target: T1, OXA-23 (Acinetobacter baumannii, UniProt Q9L4P2); experiment: Jump-dilution dissociation assay (koff, t1/2) with OXA-23; format: biochemical
T1 construct: GST (N); made in house; host or cells: Escherichia coli BL21
Experimental: (§1) The Michaelis-Menten constant (Km) was determined by fitting the data to the Michaelis-Menten equation, following established protocols ([38]). The kcat (hydrolysis rate constant of the β-lactamase) was obtained by linearization of the kinetic data ([39]). To assess the possible inhibitory capacity of enmetazobactam against the CHDLs of A. baumannii, specific OXA-23 inhibition kinetics assays were performed in a Nanoquant Infinite spectrophotometer (Tecan). […] Also, the dissociation constant (koff), which represents the rate at which the enzyme-inhibitor complex dissociates (i.e., the proportion of the enzyme-inhibitor complex that dissociates per unit of time), was determined through a jump-dilution assay that monitored OXA-23 activity recovery as the enzyme-inhibitor complex dissociated. OXA-23 (1 µM) was preincubated for 30 min at 37°C with excess of inhibitors (50× IC₅₀) to ensure full acyl-enzyme complex formation. Subsequently, the mixture was diluted 1:5,000 to allow gradual complex dissociation. […] Enzymatic activity, reflecting the progressive dissociation of the acyl-enzyme complex, was monitored spectrophotometrically at 490 nm for 8 h. The resulting progress curves were fitted using GraphPad Prism (GraphPad Software, MA, USA) to equation 1 to estimate koff, where V0 is the initial, inhibited enzyme velocity; Vs is the steady-state uninhibited enzyme velocity, and t is time.
(1) P=Vs×t+(V0−Vs)×[1−exp^(−koff × t)]/koff

OXA-23 [2] = biological target: T1, OXA-23; experiment: OXA-23 inhibition assay (nitrocefin hydrolysis IC50); format: biochemical; details: OXA-23; nitrocefin hydrolysis; 10 min preincubation at room temperature; read-out: IC50
Experimental: as §1

OXA-24/40 = details: cited from earlier work
[3] = tested on: [H][C@@]12CC(=O)N1[C@@H](C(=O)[O-])[C@](C)(Cn1cc[n+](C)n1)S2(=O)=O; experiment: purified protein, by the assay type; details: other: hydrolysis by OXA-23, 25°C, pH 7.4
Experimental: All kinetics measurements were performed in triplicate, at 25°C, in 20 mM NaHCO3 and 50 mM Na2HPO4 at pH 7.4.

[4] = tested on: carbapenem-resistant CHDL-producing A. baumannii isolates (OXA-23, OXA-24/40, OXA-58); experiment: Checkerboard synergy assay (FIC index); format: cell-based, Acinetobacter baumannii; details: checkerboard colistin x enmetazobactam, alone or in presence of the partner
Experimental: Checkerboard assays were performed to assess synergistic interactions between the cefepime/enmetazobactam combination and sulbactam, as well as between enmetazobactam alone and either sulbactam or colistin. […] The assays were conducted with three multidrug-resistant A. baumannii isolates from the Spanish Multicenter Collection, each producing a different OXA-type carbapenemase: OXA-23, OXA-24/40, or OXA-58. The FIC index was calculated and interpreted as follows: FICindex ≤ 0.5, synergy; FICindex > 0.5–4, no synergy; and FICindex > 4, antagonism ([33], [34]).

T1 sequence (Q9L4P2 18-273): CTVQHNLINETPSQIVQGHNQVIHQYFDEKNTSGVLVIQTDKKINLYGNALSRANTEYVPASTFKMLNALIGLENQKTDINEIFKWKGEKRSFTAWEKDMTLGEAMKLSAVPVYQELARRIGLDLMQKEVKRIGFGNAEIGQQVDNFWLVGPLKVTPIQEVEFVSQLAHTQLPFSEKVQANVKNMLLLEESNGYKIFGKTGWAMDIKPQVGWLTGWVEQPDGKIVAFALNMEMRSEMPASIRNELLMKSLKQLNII

CC1=C[C@@H]2CN(C(=O)N2OS(=O)(=O)O)[C@@H]1C(N)=O [durlobactam]
residence time (OXA-23 [1]; jump dilution): 412 ± 4 min
koff (OXA-23 [1]; jump dilution 1:5,000): 2.8e-05 s⁻¹
IC50 (OXA-23 [2]): 0.17 µM
IC50 (OXA-24/40): 0.19 µM

OXA-23 (Acinetobacter baumannii)
Km [3]: 171.85 ± 55.78 µM
kcat [3]: 0.177 ± 0.056 s⁻¹
kcat/Km [3]: 1030 M⁻¹ s⁻¹

colistin
MIC ([4]; isolate Ab4 (OXA-23)): 1 µg/mL
MIC ([4]; isolate Ab138 (OXA-58)): 1 µg/mL
MIC ([4]; isolate Ab180 (OXA-24/40)): 0.25 µg/mL
